Reference: PMC8194028, “Engineering and characterization of human β-defensin-3 and its analogues and microcin J25 peptides against Mannheimia haemolytica and bovine neutrophils” (Veterinary Research, 2021)
Values after ≈ are worked out from the molar mass of the structure shown. Where two headings read alike, the source gives them in different places. Positions of bridges follow the written chain, without caps; N, C: chain ends. Residues, ends and D or L forms follow the SMILES beside them. No end group written: not given here.

Legend:
[1] = tested on: M. haemolytica-A1; type: cell-based, Mannheimia haemolytica; conditions: for No. of CFU: one of three experiments
Protocol: Wild-type HBD3, its analogues, and MccJ25 were tested against M. haemolytica-A1 using optical density method and colony count assay. Briefly, an aliquot (5 µL) from bacteria suspension stored at −80 °C was put in 5 mL BHI broth at 37 °C for 18 h. An aliquot (10 µL) from this overnight culture was added to fresh BHI broth and incubated at 37 °C for a further 5 h to obtain mid-log phase bacteria. The culture was then centrifuged for 10 min at 800 g at 4 °C. The supernatant was discarded and the bacterial pellet was resuspended in cold, sterile sodium phosphate buffer (SPB) and washed again at 800g for 10 min at 4 °C. The pellet was resuspended in 5 mL SPB. To calculate the number of CFU/mL in the 5 h culture, six successive tenfold dilutions were made. From the last dilution 100 µL was plated in duplicate on petri dishes containing BHI agar and incubated for 24 h. After 24 h the colonies were counted in the two petri dishes and then averaged. Total number of colonies was the average number of colonies multiplied by the dilution factor.
All assays were carried out in sterile 96-well polypropylene flat-bottomed plates using a broth microdilution method. Two-fold serial dilutions of peptide were made in SPB, and 50 µL of each concentration of peptide was added to the wells of the assay plate. […] Positive control wells contained 50 µL of the bacteria with 50 µL of 64 µg/mL ampicillin and negative control wells contained 50 µL of SPB and 50 µL bacterial suspension. Sterility control well contained 100 µL BHI broth to test and ensure that broth was not contaminated.
The plates were sealed with aluminum foil and were incubated at 37 °C for 2 h then 50 µL of the contents of the well were pipetted on BHI agar plates and incubated for 24 h. The bactericidal activity was expressed as the MBC which is the concentration at which 99.9% of the colonies are killed and the Lethal dose 50 (LD50) at which 50% or more bacteria are killed. All experiments were run in triplicates.
Peptides HBD3, its analogues and Mccj25 were assessed for Minimum bactericidal concentration (MBC). […] All the peptides have shown intermediate to potent killing activity towards M. haemolytica (Figures 2, 3). […] However, some published studies have taken final inoculum in the range of 10^4–10^5 cfu/mL [28].

[2] = cited from earlier work
From the text: In this context, antimicrobial peptides (AMPs) have received significant attention as alternatives to antibiotics. […] Recent work by the […] laboratory has shown that treatment with naturally expressed Tracheal Antimicrobial Peptide, a defensin, neither killed M. haemolytica nor prevented the development of lung disease. Coupled with the fact that M. haemolytica, in normal condition, is prevented from e ...

[3] = tested on: bovine neutrophils; experiment: Chemotaxis assay, 48-well Boyden chamber; type: cell-based, cattle; conditions: peptide 50.0 μg/mL in lower well; 20 min at 37 °C; three independent experiments; ANOVA with Dunnett, P < 0.05
Protocol: (§1) Neutrophils were isolated from cattle using established methods and approved by the University of Saskatchewan’s Committee on Animal Care. For each individual animal, blood was pooled into 50 mL tubes and diluted with an equal volume of PBS then 12.5 mL of the diluted blood was layered over 10 mL of Ficoll Paque PLUS (Sigma-Aldrich, St. Louis, USA) while taking care to preserve the interface between the two liquids. Following centrifugation at 400 g for 30 min at 20 °C with the brake turned off, the lymphocyte layer was discarded along with Ficoll and plasma. The pellet was washed in 20 mL PBS with centrifugation at 500 g with low brake for 10 min. The supernatant was discarded and the pellet was suspended in equal volume of sterile water and gently mixed for 20 s followed by addition of equal volume of 1.8% NaCl to restore tonicity. The mixture was centrifuged at 500 g for 10 min and followed by another washing and centrifugation at 4 °C. The resulting neutrophil pellet was resuspended in PBS. Bovine neutrophils, collected in the above manner had more than 92% purity, and their viability was greater than 95% based on Trypan blue exclusion assay. Therefore, we use the term neutrophils in the manuscript.
We used fMLP ([…]) as the chemoattractant. […] The cells within the filter pores were then counted in five random fields under light microscope at 40×. […]

[4] = tested on: bovine neutrophils; experiment: Migration inhibition assay (neutrophil migration towards fMLP); type: cell-based, cattle; conditions: neutrophils with 50.0 μg/mL peptide in upper well; fMLP 114 nM in lower well; 20 min at 37 °C; three independent experiments
Protocol: as §1
Since peptides can be immunomodulatory, migration inhibition was carried out to determine if the peptides inhibit neutrophil migration. […]

[5] = peptide 0.8 μg/mL, well row A (duplicate 1), final inoculum 5 × 10^5 cfu/mL
[6] = peptide 0.8 μg/mL, well row B (duplicate 2), final inoculum 5 × 10^5 cfu/mL
[7] = peptide 1.6 μg/mL, well row A (duplicate 1), final inoculum 5 × 10^5 cfu/mL
[8] = peptide 1.6 μg/mL, well row B (duplicate 2), final inoculum 5 × 10^5 cfu/mL
[9] = peptide 3.1 μg/mL, well row A (duplicate 1), final inoculum 5 × 10^5 cfu/mL
[10] = peptide 3.1 μg/mL, well row B (duplicate 2), final inoculum 5 × 10^5 cfu/mL
[11] = peptide 12.5 μg/mL, well row A (duplicate 1), final inoculum 5 × 10^5 cfu/mL
[12] = peptide 12.5 μg/mL, well row B (duplicate 2), final inoculum 5 × 10^5 cfu/mL
[13] = peptide 25.0 μg/mL, well row A (duplicate 1), final inoculum 5 × 10^5 cfu/mL
[14] = peptide 25.0 μg/mL, well row B (duplicate 2), final inoculum 5 × 10^5 cfu/mL
[15] = peptide 50.0 μg/mL, well row A (duplicate 1), final inoculum 5 × 10^5 cfu/mL
[16] = peptide 50.0 μg/mL, well row B (duplicate 2), final inoculum 5 × 10^5 cfu/mL
[17] = peptide 100.0 μg/mL, well row A (duplicate 1), final inoculum 5 × 10^5 cfu/mL, 2 h 37 °C, 50 μL plated, 24 h
[18] = peptide 100.0 μg/mL, well row B (duplicate 2), final inoculum 5 × 10^5 cfu/mL

Compound: CC[C@H](C)[C@H](NC(=O)CNC(=O)[C@@H](NC(=O)[C@H](Cc1ccccc1)NC(=O)[C@H](Cc1ccc(O)cc1)NC(=O)[C@@H]1CCC(=O)NCC(=O)NCC(=O)N[C@@H](C)C(=O)NCC(=O)N[C@@H](Cc2c[nH]cn2)C(=O)N[C@@H](C(C)C)C(=O)N2CCC[C@H]2C(=O)N1)C(C)C)C(=O)NCC(=O)N[C@H](C(=O)N1CCC[C@H]1C(=O)N[C@H](C(=O)N[C@@H](CO)C(=O)N[C@@H](Cc1ccccc1)C(=O)N[C@@H](Cc1ccc(O)cc1)C(=O)NCC(=O)O)[C@@H](C)CC)[C@@H](C)O [MccJ25, Microcin J25] (GGAGHVPEYFVGIGTPISFYG-OH; lactam N-8 (inferred); C-terminus assumed)
- MBC ([1]; concentration at which 99.9% of the CFU in the final inoculum are killed, 2 h at 37 °C in SPB/BHI, then plated on BHI agar 24 h, final inoculum 1 × 10^5 to 1 × 10^6 cfu/mL, triplicates): 100 mg/L (≈ 47.5 µM)
- LD50 ([1]; lethal dose for ≥ 50% of bacteria, 2 h at 37 °C, then plated 24 h, final inoculum 1 × 10^5 to 1 × 10^6 cfu/mL, triplicates): 6.3 µg/mL
- No. of CFU [1, 5]: >400 CFU
- No. of CFU [1, 6]: >400 CFU
- No. of CFU [1, 7]: >400 CFU
- No. of CFU [1, 8]: >400 CFU
- No. of CFU [1, 9]: >400 CFU
- No. of CFU [1, 10]: >400 CFU
- No. of CFU ([1]; peptide 6.3 μg/mL, well row A (duplicate 1), final inoculum 5 × 10^5 cfu/mL): 289 CFU
- No. of CFU ([1]; peptide 6.3 μg/mL, well row B (duplicate 2), final inoculum 5 × 10^5 cfu/mL): 261 CFU
- No. of CFU [1, 11]: 211 CFU
- No. of CFU [1, 12]: 253 CFU
- No. of CFU [1, 13]: 314 CFU
- No. of CFU [1, 14]: 310 CFU
- No. of CFU [1, 15]: 328 CFU
- No. of CFU [1, 16]: 230 CFU
- No. of CFU [1, 17]: 211 CFU
- No. of CFU [1, 18]: 275 CFU

Compound: CC[C@H](C)[C@H](NC(=O)CNC(=O)[C@@H](NC(=O)[C@H](Cc1ccccc1)NC(=O)[C@H](Cc1ccc(O)cc1)NC(=O)[C@@H]1CCC(=O)NCC(=O)NCC(=O)N[C@@H](C)C(=O)NCC(=O)N[C@@H](Cc2cnc[nH]2)C(=O)N[C@@H](C(C)C)C(=O)N2CCC[C@H]2C(=O)N1)C(C)C)C(=O)NCC(=O)N[C@H](C(=O)N1CCC[C@H]1C(=O)N[C@H](C(=O)N[C@@H](CO)C(=O)N[C@@H](Cc1ccccc1)C(=O)N[C@@H](Cc1ccc(O)cc1)C(=O)NCC(=O)O)[C@@H](C)CC)[C@@H](C)O [MccJ25, Microcin J25] (GGAGHVPEYFVGIGTPISFYG-OH; lactam N-8)
- Stability in the presence of many proteolytic enzymes [2]: stable

Compound: KEEQIGKVSTRGRKVVRRKK-OH [HBD3 20AA analogue]
- Chemotaxis of bovine neutrophils towards peptide (migrated neutrophils vs PBS) [3]: chemotactic
- LD50 ([1]; 2 h): 3.1 µg/mL
- MBC ([1]; 2 h): 50.0 mg/L
- Sensitivity of M. haemolytica to the peptide (class by MBC) ([1]; MBC assay, classification of ref 28): intermediately sensitive (as intermediately sensitive if MBC levels were 10–100 μg/mL)
- No. of CFU [1, 5]: >400 CFU
- No. of CFU [1, 6]: >400 CFU
- No. of CFU [1, 7]: >400 CFU
- No. of CFU [1, 8]: >400 CFU
- No. of CFU [1, 9]: 376 CFU
- No. of CFU [1, 10]: >400 CFU
- No. of CFU [1, 11]: 240 CFU
- No. of CFU [1, 12]: 170 CFU
- No. of CFU [1, 13]: 128 CFU
- No. of CFU [1, 14]: 151 CFU
- No. of CFU [1, 15]: 15 CFU
- No. of CFU [1, 16]: 4 CFU
- No. of CFU [1, 17]: 4 CFU
- No. of CFU [1, 18]: 1 CFU
- Effect of peptide on neutrophil migration towards fMLP [4]: none of the peptides inhibited migration

Compound: RGRKVVRRKK-OH [HBD3 10AA analogue]
- MBC ([1]; 2 h): 6.3 mg/L
- LD50 ([1]; 18 h): ≥ 3.1 µg/mL
- No. of CFU ([1]; peptide 3.1 μg/mL, well row A (duplicate 1), final inoculum 10^4 cfu/mL): 7 CFU
- No. of CFU ([1]; peptide 3.1 μg/mL, well row B (duplicate 2), final inoculum 10^4 cfu/mL): 2 CFU
- No. of CFU ([1]; peptide 6.3 μg/mL, well row A (duplicate 1), final inoculum 10^4 cfu/mL): 4 CFU
- No. of CFU ([1]; peptide 6.3 μg/mL, well row B (duplicate 2), final inoculum 10^4 cfu/mL): 1 CFU
- No. of CFU ([1]; peptide 12.5 μg/mL, well row A (duplicate 1), final inoculum 10^4 cfu/mL): 4 CFU
- No. of CFU ([1]; peptide 12.5 μg/mL, well row B (duplicate 2), final inoculum 10^4 cfu/mL): 6 CFU
- No. of CFU ([1]; peptide 25.0 μg/mL, well row A (duplicate 1), final inoculum 10^4 cfu/mL): 4 CFU
- No. of CFU ([1]; peptide 25.0 μg/mL, well row B (duplicate 2), final inoculum 10^4 cfu/mL): 3 CFU
- No. of CFU ([1]; peptide 50.0 μg/mL, well row A (duplicate 1), final inoculum 10^4 cfu/mL): 4 CFU
- No. of CFU ([1]; peptide 50.0 μg/mL, well row B (duplicate 2), final inoculum 10^4 cfu/mL): 1 CFU
- No. of CFU ([1]; peptide 100.0 μg/mL, well row A (duplicate 1), final inoculum 10^4 cfu/mL): 0 CFU
- No. of CFU ([1]; peptide 100.0 μg/mL, well row B (duplicate 2), final inoculum 10^4 cfu/mL): 0 CFU
